Experimental data reported in PMC4558462, “A new small molecule inhibitor of soluble guanylate cyclase” (Bioorganic & Medicinal Chemistry, 2015).
Numbering of substitutions follows the chain as printed. Entries after “also recorded” stand apart in the source; their conditions may differ.

Columns and labels:
sGC = biological target: T1, sGC (Homo sapiens, UniProt Q02108+Q02153); experiment: Earlier laboratory observation of effect on sGC (data not shown); assay type: biochemical; conditions: low millimolar concentrations
T1 sequence (Q02108 1-690): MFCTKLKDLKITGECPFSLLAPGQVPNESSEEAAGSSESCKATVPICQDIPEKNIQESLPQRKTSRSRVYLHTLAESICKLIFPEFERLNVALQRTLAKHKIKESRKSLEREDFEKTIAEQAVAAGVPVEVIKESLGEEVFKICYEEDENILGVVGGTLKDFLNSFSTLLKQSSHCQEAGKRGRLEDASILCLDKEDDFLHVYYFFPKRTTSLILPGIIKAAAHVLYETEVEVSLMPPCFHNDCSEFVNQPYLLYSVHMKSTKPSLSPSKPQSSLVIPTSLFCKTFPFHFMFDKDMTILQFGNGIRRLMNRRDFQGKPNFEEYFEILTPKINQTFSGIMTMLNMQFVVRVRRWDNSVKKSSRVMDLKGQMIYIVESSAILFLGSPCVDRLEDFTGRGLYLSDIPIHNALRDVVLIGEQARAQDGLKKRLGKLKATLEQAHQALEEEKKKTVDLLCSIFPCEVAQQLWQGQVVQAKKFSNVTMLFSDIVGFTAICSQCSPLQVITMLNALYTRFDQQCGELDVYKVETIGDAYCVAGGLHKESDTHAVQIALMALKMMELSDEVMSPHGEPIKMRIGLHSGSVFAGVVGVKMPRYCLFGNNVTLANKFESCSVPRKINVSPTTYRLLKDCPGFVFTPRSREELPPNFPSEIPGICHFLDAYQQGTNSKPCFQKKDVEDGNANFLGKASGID
T1 sequence (Q02153 1-619): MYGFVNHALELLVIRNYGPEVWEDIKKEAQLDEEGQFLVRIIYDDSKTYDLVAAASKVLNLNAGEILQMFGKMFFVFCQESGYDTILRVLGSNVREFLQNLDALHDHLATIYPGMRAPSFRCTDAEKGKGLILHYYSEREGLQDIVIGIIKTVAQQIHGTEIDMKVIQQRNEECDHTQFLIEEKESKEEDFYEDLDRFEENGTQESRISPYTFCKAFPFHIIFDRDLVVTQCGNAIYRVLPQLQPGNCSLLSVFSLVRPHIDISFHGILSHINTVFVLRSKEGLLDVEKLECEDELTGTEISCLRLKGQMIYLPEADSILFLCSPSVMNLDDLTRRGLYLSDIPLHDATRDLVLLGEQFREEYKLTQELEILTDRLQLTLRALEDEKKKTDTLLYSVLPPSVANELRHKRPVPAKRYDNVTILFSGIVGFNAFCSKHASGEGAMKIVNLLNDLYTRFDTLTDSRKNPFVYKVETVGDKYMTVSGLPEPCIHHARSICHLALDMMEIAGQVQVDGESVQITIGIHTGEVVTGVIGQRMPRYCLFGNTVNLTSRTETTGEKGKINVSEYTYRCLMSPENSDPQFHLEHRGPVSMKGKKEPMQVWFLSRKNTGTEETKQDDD
Description: In the course of studies in our laboratory we observed activation of sGC with the anti-epileptic drug lamotrigine 2 and inhibition with lamotrigine analogues sipatrigine 3 and 4, all at low millimolar concentrations (data not shown) (Fig. 1). These compounds were used as the starting point for a screening study to find new inhibitors of sGC. The strategy was to conduct several rounds of similarity searching and screening to identify the best inhibitors. Some synthetic studies were conducted on the best hit to explore the structure–activity relationships.

purified bovine lung sGC = biological target: T2, purified bovine lung sGC (Bos taurus, UniProt P16068+P19687); experiment: Soluble guanylate cyclase activity assay (cGMP radioimmunoassay); assay type: biochemical; conditions: for inhibition at 100 µM: synthesised analogues, read-out: sGC activity% inhibition at 100 μM; for inhibition of sGC enzyme activity (in words): discussion of Table 1
T2 construct: screened at 100 μM against purified bovine lung sGC; purchased Enzo lifesciences ALX-202-039-C005; host or cells: bovine lung
T2 sequence (P19687 1-691): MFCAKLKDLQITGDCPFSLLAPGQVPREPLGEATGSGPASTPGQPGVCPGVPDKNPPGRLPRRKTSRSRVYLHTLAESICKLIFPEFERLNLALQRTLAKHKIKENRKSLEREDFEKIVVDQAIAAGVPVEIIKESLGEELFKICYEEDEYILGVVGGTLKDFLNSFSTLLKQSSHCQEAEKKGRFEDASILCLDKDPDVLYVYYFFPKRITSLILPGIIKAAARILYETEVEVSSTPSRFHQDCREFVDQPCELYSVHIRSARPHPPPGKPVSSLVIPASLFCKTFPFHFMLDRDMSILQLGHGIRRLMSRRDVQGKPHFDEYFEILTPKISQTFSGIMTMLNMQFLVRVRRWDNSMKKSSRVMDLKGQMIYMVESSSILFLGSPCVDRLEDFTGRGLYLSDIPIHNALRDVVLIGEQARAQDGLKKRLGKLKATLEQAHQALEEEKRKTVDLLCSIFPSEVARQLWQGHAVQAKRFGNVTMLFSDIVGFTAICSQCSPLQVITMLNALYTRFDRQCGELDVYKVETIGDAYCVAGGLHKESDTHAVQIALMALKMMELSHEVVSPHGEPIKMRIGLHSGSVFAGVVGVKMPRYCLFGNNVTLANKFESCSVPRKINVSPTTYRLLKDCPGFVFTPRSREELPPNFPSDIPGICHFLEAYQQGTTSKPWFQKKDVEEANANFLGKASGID
T2 sequence (P16068 1-619): T1 sequence (Q02153 1-619) with E126D, L290S, S574T, K615E, D618E, D619N
Description: Virtual screening was performed by similarity searches using MACCS fingerprints at 85% and 75% Tanimoto of commercial libraries and the selected compounds were screened at 100 μM against purified bovine lung sGC using diethylamine NONOate (30 nM) as the NO donor. Enzyme activity was determined by measuring cGMP production using a standard cGMP [^3H] radioimmunoassay.[21,22]
[…] Compounds were added at 100 μM prior to adding the NO donor DEA/NO (30 nM) or clamped NO concentrations. cGMP generation was allowed to proceed for two minutes, after which aliquots were withdrawn and inactivated by boiling in 50 mM Tris, 4 mM EDTA buffer. cGMP formation was measured by a standard radioimmunoassay.

sGCcat = biological target: T3, sGCcat (Homo sapiens, UniProt Q02108+Q02153); experiment: SPR binding to catalytic domain of sGC; conditions: for sGCcat (SPR) binding norm. resp. (RU): Biacore T200, 25 °C; for binding to sGCcat (in words): discussion of Table 1
T3 construct: a smaller construct of the catalytic domain (sGCcat)
T3 sequence (Q02108 481-608 limits assumed): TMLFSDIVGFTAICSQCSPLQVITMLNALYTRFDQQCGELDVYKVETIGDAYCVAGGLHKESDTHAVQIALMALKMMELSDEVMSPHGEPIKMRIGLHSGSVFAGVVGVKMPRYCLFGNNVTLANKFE
T3 sequence (Q02153 421-554 limits assumed): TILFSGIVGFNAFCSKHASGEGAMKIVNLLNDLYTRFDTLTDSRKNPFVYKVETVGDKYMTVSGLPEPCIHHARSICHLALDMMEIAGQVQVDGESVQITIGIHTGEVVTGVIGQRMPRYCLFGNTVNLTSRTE
Description: We have previously described a surface plasmon resonance-based assay for the detection of binding of small molecules to full-length sGC and a smaller construct of the catalytic domain (sGCcat).[24] This assay was used to measure the binding of the compounds to sGCcat.[24] […] The position of the hydroxyl group can be changed whilst retaining binding strength and activity.
Surface plasmon resonance (SPR) experiments were performed with a Biacore T200 instrument at 25 °C. Data processing and analysis were performed using BIAevaluation software and Scrubber2. All sensorgrams were double referenced by subtracting the response in a reference flowcell and a blank sample. Materials and methods used were the same as previously published.[24]

SMILES | effect on sGC (sGC) | inhibition at 100 µM (purified bovine lung sGC) | sGCcat (SPR) binding norm. resp. (RU) (sGCcat) | binding to sGCcat (in words) (sGCcat) | inhibition of sGC enzyme activity (in words) (purified bovine lung sGC)
Nc1nnc(-c2cccc(Cl)c2Cl)c(N)n1 [Compound 2, lamotrigine] | activation | – | – | – | –
CN1CCN(c2ncc(-c3cc(Cl)cc(Cl)c3Cl)c(N)n2)CC1 [Compound 3, sipatrigine] | inhibition | – | – | – | –
Nc1nc(N)c(-c2cc(Cl)cc(Cl)c2Cl)c(C(F)(F)F)n1 [Compound 4] | inhibition | – | – | – | –
Oc1ccc(Nc2nc3ccc(C(F)(F)F)cc3nc2Nc2ccc(O)cc2)cc1 [Compound 21, 4,4′-((6-(Trifluoromethyl)quinoxaline-2,3-diyl)bis(azanediyl))diphenol] | – | 44.4% | 6.4 ± 0.5 RU | higher binding | –
Oc1cccc(Nc2nc3ccc(C(F)(F)F)cc3nc2Nc2cccc(O)c2)c1 [Compound 22, 3,3′-((6-(Trifluoromethyl)quinoxaline-2,3-diyl)bis(azanediyl))diphenol] | – | 21.1% | 3.0 ± 0.5 RU | – | –
N#Cc1ccc2nc(Nc3ccc(O)cc3)c(Nc3ccc(O)cc3)nc2c1 [Compound 23, 2,3-Bis((4-hydroxyphenyl)amino)quinoxaline-6-carbonitrile] | – | – | 4.5 ± 2 RU | bind to the receptor | do not inhibit the enzyme activity
N#Cc1ccc2nc(Nc3cccc(O)c3)c(Nc3cccc(O)c3)nc2c1 [Compound 24, 2,3-Bis((3-hydroxyphenyl)amino)quinoxaline-6-carbonitrile] | – | – | 10.5 ± 0.5 RU | bind to the receptor | do not inhibit the enzyme activity
Oc1ccc(Nc2nc3ccc(Cl)cc3nc2Nc2ccc(O)cc2)cc1 [Compound 25, 4,4′-((6-Chloroquinoxaline-2,3-diyl)bis(azanediyl))diphenol] | – | – | 9.7 ± 0.5 RU | bind to the receptor | do not inhibit the enzyme activity
Oc1cccc(Nc2nc3ccc(Cl)cc3nc2Nc2cccc(O)c2)c1 [Compound 26, 3,3′-((6-Chloroquinoxaline-2,3-diyl)bis(azanediyl))diphenol] | – | – | 9.0 ± 0.4 RU | bind to the receptor | do not inhibit the enzyme activity
Nc1ccc2nc(Nc3ccc(O)cc3)c(Nc3ccc(O)cc3)nc2c1 [Compound 29, 4,4′-((6-Aminoquinoxaline-2,3-diyl)bis(azanediyl))diphenol] | – | – | 9.9 ± 0.2 RU | higher binding; also recorded: bind to the receptor | do not inhibit the enzyme activity
